# Laboratory results published in patent US8008286B2, “Method for treatment of neuropathic pain” (University of Virginia Patent Foundation, priority 2006, dated 2011).
# How the values were obtained:
# [1] = tested on: rat with a crushed sciatic nerve; assay: Pain assay, 'trauma' model of neuropathic pain (crushed sciatic nerve), paw withdrawal latency with heat lamp; format: in vivo; details: rats, 10 mg/kg IP once on day 0, tested each day
# Method: Test compound, VPC01091 (Drug T, mixture of all isomers), was dissolved in 2% hydroxypropyl beta-cyclodextrin in water and administered to the test group of laboratory rats. The vehicle (Drug V: 2% hydroxypropyl beta-cyclodextrin in water) was administered to the control group of laboratory rats. Each group included 11 animals.
# The identities of ‘Drug T’ and ‘Drug V’ were maintained in secret to prevent bias. The test solutions (test compound or vehicle) were intraperitoneally (IP) administered once (day 0), the dose was 10 mg/kg body weight. On day 0, each of the 22 animals was anesthetized, the sciatic nerve bundle on the right side exposed surgically, and crushed mechanically. This is known as the ‘trauma’ model of neuropathic pain. The animals were tested each day for the time required to lift either paw after illumination with small heat lamp.
# SPHK2 enzyme = target: T1, SPHK2 enzyme (Homo sapiens, UniProt Q9NRA0); assay: Phosphorylation by the SPHK2 enzyme in vitro; format: biochemical; details: separated isomers of VPC01091, in vitro
# T1 sequence (Q9NRA0 1-654): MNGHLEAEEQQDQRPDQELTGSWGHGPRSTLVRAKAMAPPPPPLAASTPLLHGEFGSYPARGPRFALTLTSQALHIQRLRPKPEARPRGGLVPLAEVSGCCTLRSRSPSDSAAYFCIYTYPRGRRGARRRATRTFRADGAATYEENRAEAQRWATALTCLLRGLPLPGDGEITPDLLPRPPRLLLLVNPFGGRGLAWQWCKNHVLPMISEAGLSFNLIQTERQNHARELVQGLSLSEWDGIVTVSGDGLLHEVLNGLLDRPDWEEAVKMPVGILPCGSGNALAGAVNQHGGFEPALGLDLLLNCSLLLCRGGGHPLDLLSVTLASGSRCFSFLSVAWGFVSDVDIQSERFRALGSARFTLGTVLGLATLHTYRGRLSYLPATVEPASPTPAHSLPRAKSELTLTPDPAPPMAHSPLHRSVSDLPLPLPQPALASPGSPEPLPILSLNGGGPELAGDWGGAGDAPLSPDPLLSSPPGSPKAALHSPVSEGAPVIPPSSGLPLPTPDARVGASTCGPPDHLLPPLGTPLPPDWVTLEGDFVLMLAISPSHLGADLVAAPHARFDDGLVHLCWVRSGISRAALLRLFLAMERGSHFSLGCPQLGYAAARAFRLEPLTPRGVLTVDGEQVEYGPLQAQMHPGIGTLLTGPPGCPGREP
# Method: These compounds can be prepared as a mixture and separated by chromatography. Exemplary conditions for separation are as follows: Column: Chiralpak AD 4.6 mm ID×250 mm, Mobile Phase: Hex/EtOH/MeOH/DEA=95/2.5/2.5/0.03, Flow Rate: 1 mL/min, Detector: UV 220 nm, Column Temp: 40° C., or Column Temp: 25° C.
# [2] = tested on: sciatic nerve injury (CCI) model; assay: Sciatic nerve injury (CCI) model of neuropathic pain, mechanical allodynia; format: in vivo, rat; details: rats, 3 mg/kg p.o. once a day for 5 days, started 2 weeks after nerve injury
# Text: In these models, oral treatment with VPC01091-D was started 2 weeks following nerve injury, once the pain was established. A control group received only vehicle. Following once a day dosing for 5 days, […].) reversed mechanical allodynia by 42±8% in the CCI model. (See FIG. 5).
# [3] = tested on: spinal nerve injury (SNL) model; assay: Spinal nerve injury (SNL) model of neuropathic pain, mechanical allodynia; format: in vivo, rat; details: rats, 3 mg/kg p.o., started 2 weeks after nerve injury
# Text: In these models, oral treatment with VPC01091-D was started 2 weeks following nerve injury, once the pain was established. A control group received only vehicle.
SMILES,"analgesic effect (PWL time increases after injury), only on the affected side [1]",development of thermal hyperalgesia in the affected (crushed nerve) paw (PWL) [1],phosphorylated by the SPHK2 enzyme in vitro (SPHK2 enzyme),reversed mechanical allodynia [2] [%],analgesic activity [3] [%]
"CCCCCCCCc1ccc(C2CCC(N)(CO)C2)cc1 (centres unmarked) [VPC01091, (1-amino-3-(4-octylphenyl)cyclopentyl)methanol]",exhibited an analgesic effect,prevented the development of thermal hyperalgesia,–,–,–
CCCCCCCCc1ccc([C@H]2CC[C@](N)(CO)C2)cc1 [VPC01091-D],–,–,not phosphorylated,42±8,50±10
